In PMC7587970, “Lanostane Triterpenoids from the Fruiting Bodies of Fomes officinalis and Their Anti-Inflammatory Activities” (Molecules, 2020):
pIC50: −log10 of the molar value. Read-outs that look alike come from different tables or passages of the source.

Target: T1, cyclooxygenase (COX-2) (Ovis aries, UniProt P79208)
T1 construct: gene PTGS2
T1 sequence (P79208 17-603): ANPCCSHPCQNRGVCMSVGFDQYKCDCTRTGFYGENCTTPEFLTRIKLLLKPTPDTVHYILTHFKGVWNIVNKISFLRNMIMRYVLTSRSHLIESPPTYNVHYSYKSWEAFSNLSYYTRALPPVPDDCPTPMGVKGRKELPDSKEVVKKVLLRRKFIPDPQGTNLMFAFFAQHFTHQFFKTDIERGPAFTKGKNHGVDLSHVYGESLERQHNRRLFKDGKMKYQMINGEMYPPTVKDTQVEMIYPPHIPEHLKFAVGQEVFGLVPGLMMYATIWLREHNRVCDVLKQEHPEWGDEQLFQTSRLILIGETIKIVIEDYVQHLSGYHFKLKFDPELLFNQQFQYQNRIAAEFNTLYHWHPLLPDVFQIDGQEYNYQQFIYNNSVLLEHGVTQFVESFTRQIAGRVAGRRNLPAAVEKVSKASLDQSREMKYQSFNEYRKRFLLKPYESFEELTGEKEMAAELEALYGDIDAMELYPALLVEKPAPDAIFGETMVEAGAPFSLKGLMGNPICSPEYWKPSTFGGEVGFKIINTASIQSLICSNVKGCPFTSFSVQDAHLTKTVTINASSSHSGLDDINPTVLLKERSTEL
Test: COX colorimetric inhibitor screening assay kit (Cayman), ovine recombinant COX-2
Type: biochemical

Row | Structure (SMILES) | pIC50 (read-out: IC50) | pIC50
1 | COC(=O)CC(=O)O[C@@H]1CC[C@]2(C)C3=C(C(=O)C[C@H]2C1(C)C)[C@]1(C)CC[C@H]([C@H](C)C[C@@H]2OC(=O)C(C)=C2C)[C@@]1(C)[C@H](O)C3 [compound 5, officimalonic acid M] | 4.37 | 
2 | COc1ccc2cc([C@H](C)C(=O)O)ccc2c1 [naproxen, reference compound] |  | 5.09
3 | C[C@@H]1C[C@]2(OC[C@]34[C@H](O)C=C5C(=CC[C@H]6C(C)(C)[C@H](OC(=O)CC(=O)O)CC[C@]56C)[C@]3(C)CC[C@H]14)OC(=O)[C@@H](C)[C@@H]2C [compound 3, officimalonic acid K] | 4.52 | 
